Read-outs that look alike come from different tables or passages of the source.
Legend:
LC3A/B puncta = experiment: Autophagy induction analysis (LC3A/B puncta immuno-staining); format: cell-based, human; conditions: for Exp. 2, normalized change of nuclei numbers (Less cells): 20X objective, lysosomal LAMP co-staining
Description: Immuno-staining of LC3A/B was performed, following a standard protocol. Briefly, WI-38 cells were treated with small molecules for 24 hrs, and then processed and incubated with primary antibody (Cell Signaling, rabbit anti-LC3A/B, 1:100) overnight at 4° C. Next day, samples were processed and incubated with fluorophore-conjugated secondary antibody and further incubated with DAPI dye. Images were collected on the INCell Analyzer 2000 (Experiment 1: 10× objective; Experiment 2: 20× objective) and analyzed with the Developer Toolbox. For Experiment 2, lysosomal-associated membrane protein 2 (LAMP2) was also counter-stained to identify the LC3A/B puncta that colocalize with lysosome and the data were analyzed by the MetaXpress software (Molecular Devices, version 5.1). The intensity of total (Exp. 1) or LAMP2-colocalized LC3A/B puncta (Exp. 2) was normalized the total numbers nuclei in the fields.
These assays were performed, following the same procedures to analyze DNA-damage markers. WI-38 cells were incubated with small molecules for 24 hrs, and then processed and incubated with primary antibody (rabbit anti-LC3A/B, 1:100) overnight at 4 C. The next day, samples were processed and incubated with fluorophore-conjugated secondary antibody and further incubated with DAPI dye. Images were collected on an INCell Analyzer 2000 and analyzed with the Developer software. Total LC3A/B puncta intensity was normalized the total numbers of DAPI-positive nuclei.

NRF2 [1] = experiment: in vitro; format: cell-based, human
C. elegans = C. elegans lifespan assays (liquid and plate); format: in vivo, Caenorhabditis elegans; conditions: for ILS at 66 µM / ILS at 60 µM: Caenorhabditis elegans; for Extension of C. elegans' lifespan (qualitative): in at least 3 to 4 trials, group range ~10% to ~50%; for O = Life span- extending scores in worms: score scale 0 to 2, 4 to 6 independent trials; for M = Lifespan-extending scores in worms: summary score
NRF2 [2] = experiment: qPCR analysis of NRF2-regulated genes; format: cell-based, human; conditions: for fold induction at 10 µM: Homo sapiens
Outline: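 Expression of HMOX1, NQO1, GCLC and GSTM1 measured by qPCR relative to B2M, PPIA and GAPDH. Cells were WI-38 fibroblasts exposed 24 hrs to 10 μM compound, with RNA and cDNA prepared via Cells-to-Ct. Where stated, cells were first transfected 36 hrs with FOXO3 or NRF2 siRNA at 10 nM.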

[3] = Assay 2(z), 1.0 × 10^9 bacteria/ml, wild type + FuDR (2012 July), read-out: Lifespan assay in liquid
[4] = Assay 3(aa), 2.5 × 10^9 bacteria/ml, wild type + FuDR, read-out: Lifespan assay in liquid
[5] = Assay 4(ab), 2.0 × 10^10 bacteria/ml, CF512 worms, no FuDR, read-out: Lifespan assay on plates
[6] = 24 h, Assay 12(o), at 10 uM, qPCR, read-out: Induction of NRF2-regulated genes: NQO1 normalized fold-change
[7] = rounded fold change, WI-38 cells, 10 μM, 24 hrs (RP11 for Gr-1D, RP29 for Gr-4D), read-out: Summary of effects on NRF2-regulated genes: HMOX1
[8] = rounded fold change, WI-38 cells, 10 μM, 24 hrs (RP29 for Gr-4D), read-out: Summary of effects on NRF2-regulated genes: NQO1
[9] = 10 μM, 24 hrs, WI-38 cells, qPCR, normalized to B2M, n = 4, read-out: HMOX1 expression, normalized fold change (NRF2-regulated gene)
[10] = 10 μM, 24 hrs, WI-38 cells, qPCR, normalized to B2M, n = 4, read-out: NQO1 expression, normalized fold change (NRF2-regulated gene)
[11] = WI-38 cells, 10 μM, 24 hrs, n=4, qPCR normalized by B2M, read-out: GCLC Normalized fold change
[12] = WI-38 cells, 10 μM, 24 hrs, n=4, qPCR normalized by B2M, read-out: GSTM1 Normalized fold change
[13] = WI-38 cells, 10 μM, 24 hrs, n=4, qPCR normalized by B2M, read-out: HMOX1 Normalized fold change
[14] = WI-38 cells, 10 μM, 24 hrs, n=4, qPCR normalized by B2M, read-out: NQO1 Normalized fold change
[15] = Exp. 1, 10 μM, 10X objective, WI-38 cells
[16] = in liquid, wild type, with FuDR, 1.0 × 10^9 bacteria/ml, read-out: relative change of mean lifespan vs control, Trial 1
[17] = in liquid, wild type, with FuDR, 2.5 × 10^9 bacteria/ml, read-out: relative change of mean lifespan vs control, Trial 2
[18] = on plate, CF512 temperature-sensitive sterile animals, without FuDR, 2.0 × 10^10 bacteria/ml, read-out: relative change of mean lifespan vs control, Trial 3
[19] = 24 h, Assay 12(o), at 10 uM, qPCR, read-out: Induction of NRF2-regulated genes: HMOX1 normalized fold-change
[20] = 10 uM, with H2O2, NRF2 knockdown in WI-38 cells, YES = resistance reduced by at least 50%, partial = 25% to 50%

| SMILES | H = Potential Autophagy Induction (LC3A/B puncta; score) | H = Potential Autophagy Induction (LC3A/B puncta; summary score) | J = NRF2-dependency for H2O2-resistance (NRF2 [1]; score) | J = NRF2-dependency for H2O2-resistance (NRF2 [1]; summary score) | ILS at 66 µM (C. elegans; [3]) | ILS at 66 µM (C. elegans; [4]) | ILS at 66 µM (C. elegans; [5]) | O = Life span- extending scores in worms (C. elegans) | M = Lifespan-extending scores in worms (C. elegans) | F = Potential NRF2 Activation (NRF2 [2]; 2-point score) | fold induction at 10 µM (NRF2 [2]; [7]) | fold induction at 10 µM (NRF2 [2]; [9]) | fold induction at 10 µM (NRF2 [2]; [11]) | fold induction at 10 µM (NRF2 [2]; [12]) | fold induction at 10 µM (NRF2 [2]; [13]) | fold induction at 10 µM (NRF2 [2]; [14]) | F = Potential NRF2 Activation (NRF2 [2]; summary score) | ILS at 60 µM (C. elegans; [16]) | ILS at 60 µM (C. elegans; [17]) | ILS at 60 µM (C. elegans; [18]) | further results |
| --- | --- | --- | --- | --- | --- | --- | --- | --- | --- | --- | --- | --- | --- | --- | --- | --- | --- | --- | --- | --- | --- |
| O=[N+]([O-])c1ccccc1S(=O)(=O)Nc1cccc2cccnc12 [Gr-3A] | 0 | 0 | 0 | 0 | 33.4% | 14.2% | 16.3% | 2 (2 for observed in more than 2 trials) | 2 (2 for observed in more than 2 trials) | 0 | 1.41 | 1.41 | 1.01 | 1.35 | 1.41 | 1.37 | 0 |  |  |  | ILS at 66 µM (C. elegans; Assay 5(ac), 1.0 × 10^11 bacteria/ml, CF512 worms, no FuDR, read-out: Lifespan assay on plates): 8.4%; Extension of C. elegans' lifespan (qualitative) (C. elegans): could extend animal's lifespan; fold induction at 10 µM (NRF2 [2]; [6]): 1.3; fold induction at 10 µM (NRF2 [2]; [8]): 1.37; fold induction at 10 µM (NRF2 [2]; [10]): 1.37 |
| O=C(Nc1cccc(Cl)c1)c1ccc([N+](=O)[O-])o1 [Gr-1D] | 1 | 1 | 0 | 0 | 18.2% | -0.5% | 10.5% | 1 (1 for lifespan extension observed in 2 trials) | 1 (1 for lifespan extension observed in 2 trials) | 0 | 4.68 | 4.68 | 1.08 | 1.17 | 4.68 | 0.878 | 0 | 18.2% | -0.5% | 10.5% | Assay 15: Potential autophagy induction by LC3A/B puncta assays (LC3A/B puncta; 10 uM & 20 uM, YES/NO): YES; Exp. 1, induction of LC3A/B puncta (Up), total intensity normalized by total number of nuclei in the fields (LC3A/B puncta; [15]): p < 0.05; Up, 617%,; Exp. 1, normalized change of nuclei numbers (Less cells) (LC3A/B puncta; [15]): Less cells, 67%,; Exp. 2, normalized change of nuclei numbers (Less cells) (LC3A/B puncta; Exp. 2, 10 μM, WI-38 cells): Less cells, 67%,; Exp. 2, normalized change of nuclei numbers (Less cells) (LC3A/B puncta; Exp. 2, 20 μM, WI-38 cells): Less cells, 73%,; Summary of effects on NRF2-regulated genes: HMOX1, second run (NRF2 [2]; run RP42 (Gr-1D) / RP52 (Gr-4D), WI-38 cells, 10 μM): 5.86,; Summary of effects on NRF2-regulated genes: GCLC, second run (NRF2 [2]; run RP42 (Gr-1D), WI-38 cells, 10 μM): 0.79, |
| Oc1ncnc2sc3c(c12)CCC3 [O14] | 0 | 0 | 0 | 0 | 13.7% | 5.8% | 11.3% | 2 (2 for observed in more than 2 trials) | 2 (2 for observed in more than 2 trials) | 0 |  |  | 1.07 | 1.53 | 1.11 | 0.871 | 0 | 13.7% | 5.8% | 11.3% | Lifespan extension of C. elegans (C. elegans; across independent trials): ≥ 10%; Extension of C. elegans' lifespan (qualitative) (C. elegans): could extend animal's lifespan; Trials with lifespan extension (C. elegans; positive of total trials): 3 of 3 |
| Cc1ccc(NC(=O)c2ccc([N+](=O)[O-])o2)cc1C [Gr-1F] | 0 | 0 | 0 | 0 | 22.3% | 0.6% | 11.3% | 1 (1 for lifespan extension observed in 2 trials) | 1 (1 for lifespan extension observed in 2 trials) | 0 |  |  | 1.62 | 1.72 | 1.09 | 1.11 | 0 | 22.3% | 0.6% | 11.3% | Exp. 1, induction of LC3A/B puncta (Up), total intensity normalized by total number of nuclei in the fields (LC3A/B puncta; [15]): Up, 151%, p < 0.01; Exp. 2, normalized change of nuclei numbers (Less cells) (LC3A/B puncta; Exp. 2, 10 μM, WI-38 cells): Less cells, 82%,; Exp. 2, normalized change of nuclei numbers (Less cells) (LC3A/B puncta; Exp. 2, 20 μM, WI-38 cells): Less cells, 73%,; viability of non-stressed cells, reduced by (NRF2 [1]; human, 24 h, 10 uM): by 50%); fold induction at 10 µM (NRF2 [2]; 24 h, Assay 12(o), at 10 uM, qPCR, read-out: Induction of NRF2-regulated genes: GCLC normalized fold-change): 1.35; fold induction at 10 µM (NRF2 [2]; 24 h, Assay 12(o), at 10 uM, qPCR, read-out: Induction of NRF2-regulated genes: GSTM1 normalized fold-change): 1.28; fold induction at 10 µM (NRF2 [2]; [19]): 0.82; fold induction at 10 µM (NRF2 [2]; rounded fold change, WI-38 cells, 10 μM, 24 hrs, read-out: Summary of effects on NRF2-regulated genes: GCLC): 1.62; fold induction at 10 µM (NRF2 [2]; 10 μM, 24 hrs, WI-38 cells, qPCR, normalized to B2M, n = 4, read-out: GCLC expression, normalized fold change (NRF2-regulated gene)): 1.62 |
| CCCN1C/C(=C\c2ccc(F)cc2)C(=O)/C(=C/c2ccc(F)cc2)C1 [O15] | 0 | 0 | 1 | 1 | 38% | 6.6% | 14.6% | 1 (1 for lifespan extension observed in 2 trials) | 1 (1 for lifespan extension observed in 2 trials) | 2 | 48.7 | 48.7 | 1.23 | 0.995 | 48.7 | 1.6 | 2 | 38% | 6.6% | 14.6% | NRF2-dependency for H2O2-resistance, at 10 uM - with H2O2, 1st experiment (NRF2 [1]; 10 uM, experiment 1 (1st), with H2O2): 1st, YES;; NRF2-dependency for H2O2-resistance, at 10 uM - with H2O2, 2nd experiment (NRF2 [1]; 10 uM, experiment 2 (2nd), with H2O2): 2nd, YES.; NRF2-dependency for H2O2-resistance, at 10 uM (experiment 3) - with & without H2O2 (NRF2 [1]; 10 uM, experiment 3, with & without H2O2): YES; NRF2-dependency for H2O2-resistance (experiment 3) (NRF2 [1]; 10 uM, with & without H2O2, NRF2 knockdown in WI-38 cells, YES = resistance reduced by at least 50%, partial = 25% to 50%): YES; NRF2-dependency for H2O2-resistance, 1st experiment (NRF2 [1]; [20]): YES;; NRF2-dependency for H2O2-resistance, 2nd experiment (NRF2 [1]; [20]): YES.; Assay 17: NRF2-dependency for H2O2-resistance (NRF2 [1]; 10 uM, YES/NO): YES; Reduction of H2O2-resistance capacity upon NRF2 knockdown, on average (NRF2 [1]; 3 of 3 experiments): ~90%; NRF2-dependency of H2O2-resistance (NRF2 siRNA knockdown) (NRF2 [1]; at least 2 of 3 independent experiments): significantly attenuate; Potential NRF2 Activation (>=2 target genes induced, by >=1.5-fold) (NRF2 [2]; Assay 13(p)): YES; fold induction at 10 µM (NRF2 [2]; [19]): 48.7; fold induction at 10 µM (NRF2 [2]; [6]): 1.6; fold induction at 10 µM (NRF2 [2]; [8]): 1.6; fold induction at 10 µM (NRF2 [2]; 10 μM, 24 hrs, WI-38, read-out: Expression of at least two NRF2 target genes): > 1.5; fold induction at 10 µM (NRF2 [2]; [10]): 1.6 |
